PubChem BioAssay AID200 (DTP/NCI, 2004)
Several values for one entry are separate records, joined by “and”; a condition that tells them apart may be missing. Equal values may be shown once. Toxic doses and inconclusive results are not listed. How the source made its calls: active means survival T/C of 150% or more; inactive means T/C below 125% in these data. Where a SMILES comes first, the peptide text is derived from it.

Test system: B6C3F1 mice, B16 melanoma ip, median survival T/C
Assay: NCI In Vivo Anticancer Drug Screen. Data for tumor model B16 Melanoma (intraperitoneal) in B6C3F1 mice
Conditions: endpoint: median survival time, schedule: Q01DX009 (ip), higher = longer survival
Procedure, shortened: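 Readout: survival or tumor size in treated mice relative to vehicle controls (T/C). Model uses transplantable tumors grown in mice.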

[1] = dose: 100.0 mg/kg/injection, vehicle: Klucel (hydroxypropylcellulose) (HPC)
[2] = dose: 200.0 mg/kg/injection, vehicle: Klucel (hydroxypropylcellulose) (HPC)
[3] = dose: 25.0 mg/kg/injection, vehicle: saline with Tween-80
[4] = dose: 50.0 mg/kg/injection, vehicle: saline with Tween-80
[5] = dose: 100.0 mg/kg/injection, vehicle: saline with Tween-80
[6] = dose: 200.0 mg/kg/injection, vehicle: saline with Tween-80
[7] = dose: 400.0 mg/kg/injection, vehicle: saline with Tween-80
[8] = dose: 25.0 mg/kg/injection, vehicle: saline
[9] = dose: 50.0 mg/kg/injection, vehicle: saline
[10] = dose: 6.25 mg/kg/injection, vehicle: saline with Tween-80
[11] = dose: 12.5 mg/kg/injection, vehicle: saline with Tween-80
[12] = dose: 6.25 mg/kg/injection, vehicle: Klucel (hydroxypropylcellulose) (HPC)
[13] = dose: 12.5 mg/kg/injection, vehicle: Klucel (hydroxypropylcellulose) (HPC)
[14] = dose: 25.0 mg/kg/injection, vehicle: Klucel (hydroxypropylcellulose) (HPC)
[15] = dose: 3.13 mg/kg/injection, vehicle: saline with Tween-80
[16] = dose: 3.12 mg/kg/injection, vehicle: water
[17] = dose: 6.25 mg/kg/injection, vehicle: water
[18] = dose: 12.5 mg/kg/injection, vehicle: water
[19] = dose: 25.0 mg/kg/injection, vehicle: water
[20] = dose: 12.5 mg/kg/injection, vehicle: saline

Measured: T/C

CCOC(OCC)C(=O)OCC(=O)[C@]1(O)Cc2c(O)c3c(c(O)c2[C@@H](OC2CC(N)C(O)C(C)O2)C1)C(=O)c1c(OC)cccc1C3=O (some centres not stated)
active: dose: 0.12 mg/kg/injection, vehicle: water 155 % of control | dose: 0.13 mg/kg/injection, vehicle: water 165 % of control | dose: 0.25 mg/kg/injection, vehicle: water 177 % of control and 182 % of control | dose: 0.5 mg/kg/injection, vehicle: water 208 % of control and 285 % of control | dose: 1.0 mg/kg/injection, vehicle: water 189 % of control and 285 % of control | dose: 2.0 mg/kg/injection, vehicle: water 212 % of control and 285 % of control | dose: 4.0 mg/kg/injection, vehicle: water 285 % of control

CCCC(NC(=O)CNC(=O)CNC(=O)OCc1ccccc1)C(=O)O (configuration not stated) (HELM PEPTIDE1{[O=C(OCc1ccccc1)[*:2]].G.G.[CCCC(N[*:1])C(=O)O]}$$$$V2.0)
inactive: [1] 105 % of control | [2] 103 % of control | dose: 400.0 mg/kg/injection, vehicle: Klucel (hydroxypropylcellulose) (HPC) 112 % of control

CN(C=O)C(C(=O)Nc1cccc2c(OC(=O)C(N(C)C=O)(N(C)C=O)N(C)C=O)c(N=Nc3ccc(S(=O)(=O)Nc4nccs4)cc3)cc(N=Nc3ccc(S(=O)(=O)Nc4nccs4)cc3)c12)(N(C)C=O)N(C)C=O (tested in a mixture with another compound)
inactive: [3] 98 % of control | [4] 112 % of control | [5] 121 % of control | [6] 104 % of control | [7] 105 % of control

N=C1CCCS1
inactive: [8] 109 % of control | [9] 120 % of control

O=S(=O)(CCl)OCCCl
inactive: [10] 97 % of control and 100 % of control | [11] 108 % of control and 113 % of control and 103 % of control | [3] 114 % of control and 115 % of control and 102 % of control | [4] 109 % of control and 100 % of control | [5] 110 % of control

CC(C)(C)OC(=O)NC(CSCc1ccccc1)C(=O)ON1C(=O)CCC1=O (configuration not stated)
inactive: [1] 94 % of control | [2] 100 % of control

CCC(C)(OC(C)=O)C(=O)OC1C(=O)OC2CC3C(C)=CC(O)C(O)C3(C)C3C4(O)OCC23C1C(C)C4O (configuration not stated)
inactive: dose: 0.25 mg/kg/injection, vehicle: saline + alcohol 100 % of control | dose: 0.5 mg/kg/injection, vehicle: saline + alcohol 115 % of control | dose: 1.0 mg/kg/injection, vehicle: saline + alcohol 112 % of control | dose: 2.0 mg/kg/injection, vehicle: saline + alcohol 109 % of control | dose: 4.0 mg/kg/injection, vehicle: saline + alcohol 109 % of control

CN=C(N)NCCCCCCCCNC(N)=NC
inactive: [10] 102 % of control | [11] 98 % of control

C[C@H]1C[C@@H]2[C@H]([C@@H](O)C[C@@]3(C)[C@H]2CC[C@]3(O)C(=O)CO)[C@@]2(C)C=CC(=O)C=C12
inactive: [12] 115 % of control and 101 % of control | [13] 110 % of control and 101 % of control | [14] 114 % of control and 107 % of control | dose: 50.0 mg/kg/injection, vehicle: Klucel (hydroxypropylcellulose) (HPC) 109 % of control and 111 % of control | [1] 118 % of control and 119 % of control | [2] 112 % of control and 121 % of control

C=C(C)C(=O)OC1C/C(CO)=C\C(O)C/C(C)=C/C2OC(=O)C(=C)C21 (configuration not stated)
inactive: dose: 1.25 mg/kg/injection, vehicle: saline + alcohol 101 % of control | dose: 2.5 mg/kg/injection, vehicle: saline + alcohol 100 % of control | dose: 5.0 mg/kg/injection, vehicle: saline + alcohol 114 % of control | dose: 10.0 mg/kg/injection, vehicle: saline + alcohol 112 % of control

Nc1ccc(C(OC(=O)c2cc3ccccc3c(Cc3c(O)c(C(=O)OC(c4ccc(N)cc4)(c4ccc(N)cc4)c4ccc(N)cc4)cc4ccccc34)c2O)(c2ccc(N)cc2)c2ccc(N)cc2)cc1
inactive: dose: 0.78 mg/kg/injection, vehicle: saline with Tween-80 112 % of control and 96 % of control | dose: 3.12 mg/kg/injection, vehicle: saline with Tween-80 111 % of control and 107 % of control | [15] 104 % of control

COc1cc2c(oc(=O)c3cc(C)cc(OC)c32)c2c(C3OC(C)C(O)C(C)(O)C3O)ccc(O)c12 (configuration not stated)
inactive: dose: 1.56 mg/kg/injection, vehicle: DMSO 94 % of control and 103 % of control | dose: 3.12 mg/kg/injection, vehicle: DMSO 109 % of control and 107 % of control | dose: 6.0 mg/kg/injection, vehicle: DMSO 88 % of control | dose: 6.25 mg/kg/injection, vehicle: DMSO 119 % of control and 96 % of control and 104 % of control | dose: 12.0 mg/kg/injection, vehicle: DMSO 96 % of control | dose: 12.5 mg/kg/injection, vehicle: DMSO 121 % of control

Nc1ccc2cc(S(=O)(=O)O)cc(O)c2c1N=Nc1ccc(F)cc1
inactive: [3] 95 % of control | [4] 98 % of control | [5] 90 % of control

COCCCNC1=C(C#N)C(=O)NC(c2cccc([N+](=O)[O-])c2)S1 (configuration not stated)
inactive: [15] 112 % of control and 98 % of control | [10] 91 % of control and 96 % of control | [4] 94 % of control and 101 % of control (2×) | [5] 111 % of control and 98 % of control | [6] 111 % of control | [7] 87 % of control

C1CCN(c2c3c(nc4nnnn24)CCC3)CC1
inactive: [4] 91 % of control | [5] 104 % of control | [6] 92 % of control

NC(=O)/C=C/c1c[nH]c2nccnc12
inactive: dose: 1.56 mg/kg/injection, vehicle: water 86 % of control | [16] 93 % of control | [17] 95 % of control | [18] 102 % of control | [19] 108 % of control

Cc1ccnc(NN=O)c1
inactive: [16] 99 % of control | [17] 100 % of control

CCCC(NC(=O)OCc1ccccc1)C(=O)O (configuration not stated)
inactive: [5] 92 % of control | [6] 90 % of control

O=S1(=O)CCCO1
inactive: [20] 95 % of control | [8] 99 % of control | [9] 94 % of control

CN(C)[C@@H]1C(=O)C(C(N)=O)=C(O)[C@@]2(O)C(=O)C3=C(O)c4c(O)ccc(Cl)c4[C@@](C)(O)[C@H]3C[C@@H]12
inactive: [20] 97 % of control | [18] 109 % of control | [8] 97 % of control | [19] 105 % of control | [9] 101 % of control | dose: 50.0 mg/kg/injection, vehicle: water 104 % of control | dose: 100.0 mg/kg/injection, vehicle: saline 94 % of control | dose: 100.0 mg/kg/injection, vehicle: water 100 % of control | dose: 200.0 mg/kg/injection, vehicle: saline 98 % of control | dose: 200.0 mg/kg/injection, vehicle: water 106 % of control

CC1=C(CCC(=O)O)c2cc3nc(cc4[nH]c(cc5[nH]c(cc1n2)c(C)c5C(C)O)c(C)c4C(C)O)C(C)=C3CCC(=O)O (configuration not stated)
inactive: dose: 3.13 mg/kg/injection, vehicle: Klucel (hydroxypropylcellulose) (HPC) 111 % of control | [12] 115 % of control | [13] 107 % of control | [14] 104 % of control

CC(C)(O)[C@H]1[C@@H]2OC(=O)[C@H]1[C@]1(O)C[C@H]3OC34C(=O)O[C@H]2[C@@]41C (some centres not stated) (tested in a mixture with another compound)
inactive: dose: 0.25 mg/kg/injection, vehicle: Klucel (hydroxypropylcellulose) (HPC) 110 % of control | dose: 0.5 mg/kg/injection, vehicle: Klucel (hydroxypropylcellulose) (HPC) 99 % of control | dose: 1.0 mg/kg/injection, vehicle: Klucel (hydroxypropylcellulose) (HPC) 108 % of control | dose: 2.0 mg/kg/injection, vehicle: Klucel (hydroxypropylcellulose) (HPC) 111 % of control
